Assays:
Type in all cases: cell-based
miR-29a = miR-29a expression in human diabetic fibroblasts (real time qPCR); conditions: 24 h
Protocol: An additional secondary screen was performed to further validate the activity of UCUF-728 as a selective CXCR4 receptor modulator. Human diabetic and non-diabetic fibroblasts were cultured with increasing concentrations of the compound. The cells were incubated for 24 h and then total cellular RNA was isolated to examine the ability of the compound to correct the abnormal expression of miR-15b, and miR-29a. We have shown that human diabetic skin has an increased miR-15b expression at the baseline compared to non-diabetic skin [7].
CEM-CCRF cells (ATCC CCL-119) were cultured in growth media consisting of RPMI 1640 (Corning; Corning NY, USA) supplemented with 10% Fetal Bovine Serum (Corning; Corning, NY, USA), and 100 IU penicillin, […] streptomycin sulfate (Corning; Corning, NY, USA). Cells were maintained in suspension and subcultured twice weekly to maintain cell densities between 0.8 × 10^6 cells/mL and 2.5 × 10^6 cells/mL to maintain exponential growth phase. […]
Total RNA was extracted with TRIzol reagent (Invitrogen, Carlsbad, CA, USA) according to the manufacturer’s established protocol. […] Quantitative PCR was performed on a BIO-RAD CFX96 according to the manufacturer’s instructions. Quantitative values of genes of interest are normalized based on U6. […]

CXCR4 receptor [1] = biological target: T1, CXCR4 receptor (Homo sapiens, UniProt P61073); experiment: primary 1536 w β-arrestin recruitment assay (CXCR4-bla U2OS cells, SDF-1α from R&D systems); design: host or cells: Tango CXCR4-bla U2OS cells
T1 sequence (P61073 whole entry): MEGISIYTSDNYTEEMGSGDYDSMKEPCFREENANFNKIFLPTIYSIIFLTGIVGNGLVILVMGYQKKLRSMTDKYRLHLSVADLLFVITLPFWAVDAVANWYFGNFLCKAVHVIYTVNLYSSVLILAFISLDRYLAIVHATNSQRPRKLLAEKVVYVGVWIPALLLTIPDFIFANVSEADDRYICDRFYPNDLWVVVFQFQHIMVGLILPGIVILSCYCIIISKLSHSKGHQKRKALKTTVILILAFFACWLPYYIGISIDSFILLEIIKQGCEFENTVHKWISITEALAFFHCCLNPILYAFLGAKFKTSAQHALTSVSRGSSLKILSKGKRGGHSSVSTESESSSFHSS
Protocol: In our effort to identify CXCR4 activators from the NIH Molecular Library Small Molecule Repository (MLSMR), we developed a primary screening assay to measure β-arrestin recruitment to the activated G-protein coupled receptor (GPCR) by a Florescence Resonance Energy Transfer (FRET) in U2OS cells, overexpressing the CXCR4 receptor engineered with a β-lactamase (bla) reporter system. CXCR4-bla cells plated in 1536 w were stimulated in the presence of 10 µM compound concentration. […] Using this approach, we successfully screened the NIH MLSMR of 370,620 compounds (Figure 1A,B) and identified 303 hits (hit rate = 0.08%). […] These compounds were graded according to activity and structure, resulting in 86 compounds that met the criteria as potential CXCR4 agonists for further characterization (Figure 1B). The workflow for high-throughput screening and this study is illustrated in Figure 1B.
Chemical stability, synthetic tractability, solubility and complete dose response and potency criteria led to the prioritization of the 5-aryl-2-cyclopropyl oxazole scaffold, represented by primary hit Compound 2 (Table 1). The early structure–activity relationship was established around the 5-aryl-2-cyclopropyl oxazole core with commercially available analogs with diverse substituents in the sulfonanilide ring of the scaffold. […] Keeping the 2-OMe substituent constant, we screened a small set of electron withdrawing and electron rich substituents at the 5-position of the anilide ring (entries 16–19). […] The analytical data for UCUF-728 is shown in Supplemental Figures S1–S4.

CXCR4 receptor [2] = biological target: T1, CXCR4 receptor; experiment: 384 w β-arrestin recruitment assay (Tango CXCR4-bla U2OS cells, PeproTech SDF-1α); design: host or cells: Tango CXCR4-bla U2OS cells
Protocol: Tango™ CXCR4-bla U2OS Cells were resuspended in assay media consisting of DMEM (Corning; Corning, NY, USA) supplemented with 1% dialyzed Fetal bovine serum, 0.1 mM MEM Non-essential amino acids solution, 25 mM HEPES solution (Corning; Corning, NY, USA), 1 mM Sodium Pyruvate and 100 IU penicillin, […] streptomycin sulfate (Corning; Corning, NY, USA) at a density of 3.0 × 10^5 cells/mL. Cells suspension was dispensed at 30 μL per well into assay plate and incubated overnight in a cell culture incubator at 37 °C with 5% CO2. Following overnight incubation, LiveBlazer FRET B/G Loading Kit working reagent was prepared according to supplier guidelines and 6 μL of solution was dispensed into each well. Assay plate was covered and incubated in a dark place for two hours and Fluorescence Intensity was measured using the BMG LABTECH CLARIOstar Plus (BMG LABTECH Inc., Cary, NC, USA) according to the LiveBlazer FRET B/G Loading Kit excitation and emission measurement guidelines.

COc1ccc(OC)c(NS(=O)(=O)c2ccc(-c3cnc(C4CC4)o3)cc2)c1 [Compound 19]
miR-29a expression (miR-29a): significant decrease in the miR-29a expression level | EC50 (CXCR4 receptor [1]): 1100 nM | Emax (CXCR4 receptor [1]; U2OS): 60% | EC50 (CXCR4 receptor [2]): 500 nM | Emax (CXCR4 receptor [2]; U2OS): 30%
